Reference: patent US5698578A, “Protein kinase C inhibitors” (Eli Lilly and Company, priority 1996, dated 1997)
“Also recorded” adds a separate entry of the source. Values belong to the compound of their own block, whether it stands above or below them.

Legend:
[1] = target: PKC-α (Homo sapiens, UniProt P17252); experiment: PKC Enzyme Assay, alpha isozyme; format: biochemical; conditions: Table 1, 30 μM ATP, 30° C., 10 minutes
Procedure: PKC enzymes=alpha, beta I, beta II, gamma, delta, epsilon, eta and zeta.
Assay components in a total volume of 250 μL are as follows:
For all the enzymes either histone type HL (Worthington) or myelin basic protein is used as substrate. The assay is started by addition of protein kinase C enzyme incubated at 30° C. for 10 minutes and stopped by adding 0.5 mL of cold trichloroacetic acid (Amresco) followed by 100 μL of 1 mg/mL bovine serum albumin (Sigma, St. Louis, Mo.). The precipitate is collected by vacuum filtration on glass fiber filters employing a TOMTEC™ filtration system and quantified by counting in a beta scintillation counter.

[2] = target: Protein Tyrosine Kinase (src) (Homo sapiens, UniProt P12931); experiment: Protein Tyrosine Kinase Assay (src); format: biochemical; conditions: Table 1; Raytide substrate
Procedure: Protein Tyrosine Kinase Assay (src)
The Assay components are the following:
4 μL DMSO or DMSO/inhibitor

[3] = from CN1C(=O)C(c2c[nH]c3ccccc23)=C(c2cn(CCOC(CCI)CO[Si](c3ccccc3)(c3ccccc3)C(C)(C)C)c3ccccc23)C1=O; amine bond; Cs2CO3; DMF; 8.98 mM; 68.0 h
[4] = test system: protein kinase C isozymes; conditions: literature; cited from earlier work

Chain of Protein Tyrosine Kinase (src) (P12931 whole entry, species assumed): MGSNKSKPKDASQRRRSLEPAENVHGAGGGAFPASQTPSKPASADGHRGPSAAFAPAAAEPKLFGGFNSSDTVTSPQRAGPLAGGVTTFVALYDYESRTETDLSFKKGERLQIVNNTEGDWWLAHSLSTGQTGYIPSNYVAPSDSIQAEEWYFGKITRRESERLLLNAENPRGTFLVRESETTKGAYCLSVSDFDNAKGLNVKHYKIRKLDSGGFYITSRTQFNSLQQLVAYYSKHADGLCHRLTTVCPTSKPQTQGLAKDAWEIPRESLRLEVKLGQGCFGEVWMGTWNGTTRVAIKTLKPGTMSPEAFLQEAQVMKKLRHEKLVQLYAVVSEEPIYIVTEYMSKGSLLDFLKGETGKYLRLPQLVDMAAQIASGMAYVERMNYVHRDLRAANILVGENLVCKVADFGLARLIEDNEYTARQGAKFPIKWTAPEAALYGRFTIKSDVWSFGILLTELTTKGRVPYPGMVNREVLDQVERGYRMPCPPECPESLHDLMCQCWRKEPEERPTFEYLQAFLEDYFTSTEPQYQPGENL

- IC50 [1]: > 5 µM
Compound: O=C1NC(=O)C2=C1c1cn(c3ccccc13)CCO[C@H](CNS(=O)(=O)c1ccccc1)CCn1cc2c2ccccc21 [Example 21s]

- IC50 [2]: > 100 µM
Compound: O=C1NC(=O)C2=C1c1cn(c3ccccc13)CCO[C@H](CNCc1ccccc1)CCn1cc2c2ccccc21 [Example 18s]

Compound: CN1C(=O)C2=C(C1=O)c1cn(c3ccccc13)CCC(CO[Si](c1ccccc1)(c1ccccc1)C(C)(C)C)OCCn1cc2c2ccccc21 (stereo not shown)
- ring closure, yield of all isomers [3]: 82%

Compound: CN(C)CCCn1cc(C2=C(c3c[nH]c4ccccc34)C(=O)NC2=O)c2ccccc21 [3-[1-(3-dimethylaminopropyl)-indol-3-yl]-4-(1H-indol-3-yl)-1H-pyrrole-2,5-dione]
- PKC isozyme selectivity [4]: slight selectivity for the calcium dependent isozymes; also recorded: no difference, or possibly slight selectivity, for alpha over beta-1 and beta-2 isozymes
